Measured values published in ChEMBL document CHEMBL1122588 (J Med Chem, 1984).
Where “and” joins values, the source holds several entries; their conditions need not be identical. Identical values can stand only once.

What was measured:
[1] = tested on: P388; test: animal or person; conditions: Mus musculus
Description: In vivo antitumor activity in mice bearing P388 leukemia cells at an optimal dose of 45 mg/kg given on days 1,5,9.

[2] = tested on: P388; test: animal or person; conditions: Mus musculus; remark: listed apart in the source
Description: In vivo antitumor activity in mice bearing P388 leukemia cells at an optimal dose of 30 mg/kg given on days 1,5,9

[3] = tested on: Nucleic Acid
[4] = tested on: L1210; test: cells; conditions: Mus musculus, L1210, 72 h, read-out: ID50
Description: In vitro concentration required to reduce the murine L1210 leukemia cells in cultures to 50% after a period of 72 hr.

[5] = tested on: P388; test: animal or person; conditions: Mus musculus; remark: listed apart in the source
Description: In vivo antitumor activity in mice bearing P388 leukemia cells at an optimal dose of 45 mg/kg given on days 1,5,9

[6] = tested on: P388; test: animal or person; conditions: Mus musculus; remark: listed apart in the source
Description: In vivo antitumor activity in mice bearing P388 leukemia cells at an optimal dose of 100 mg/kg given on days 1,5,9.

[7] = tested on: P388; test: animal or person; conditions: Mus musculus; remark: listed apart in the source
Description: In vivo antitumor activity in mice bearing P388 leukemia cells at an optimal dose of 300 mg/kg given on days 1,5,9.

[8] = tested on: P388; test: animal or person; conditions: Mus musculus; remark: listed apart in the source
Description: In vivo antitumor activity in mice bearing P388 leukemia cells at an optimal dose of 100 mg/kg given on days 1,5,9

[9] = tested on: P388; test: animal or person; conditions: Mus musculus; remark: listed apart in the source
Description: In vivo antitumor activity in mice bearing P388 leukemia cells at an optimal dose of 20 mg/kg given on days 1,5,9

[10] = physchem; conditions: Intestine
Description: Compound was evaluated for its rate of absorption from the intestine and pKa value was determined, lower value indicate high absorption from gastrointestinal tract.

[11] = tested on: P388; test: animal or person; conditions: Mus musculus; remark: listed apart in the source
Description: In vivo antitumor activity in mice bearing P388 leukemia cells at an optimal dose of 65 mg/kg given on days 1,5,9

[12] = tested on: P388; test: animal or person; conditions: Mus musculus; remark: listed apart in the source
Description: In vivo antitumor activity in mice bearing P388 leukemia cells at an optimal dose of 50 mg/kg given on days 1,5,9

[13] = tested on: P388; test: animal or person; conditions: Mus musculus; remark: listed apart in the source
Description: In vivo antitumor activity in mice bearing P388 leukemia cells at an optimal dose of 30 mg/kg given on days 1,5,9.

[14] = tested on: P388; test: animal or person; conditions: Mus musculus; remark: listed apart in the source
Description: In vivo antitumor activity in mice bearing P388 leukemia cells at an optimal dose of 20 mg/kg given on days 1,5,9.

[15] = tested on: P388; test: animal or person; conditions: Mus musculus; remark: listed apart in the source
Description: In vivo antitumor activity in mice bearing P388 leukemia cells at an optimal dose of 65 mg/kg given on days 1,5,9.

[16] = tested on: P388; test: animal or person; conditions: Mus musculus; remark: listed apart in the source
Description: In vivo antitumor activity in mice bearing P388 leukemia cells at an optimal dose of 13.3 mg/kg given on days 1,5,9.

Compound	Log K [3]	IC50 [4]	ILS at 100 mg/kg [6]	pKa [10]	also measured
COc1cc(NS(C)(=O)=O)ccc1Nc1c2ccccc2nc2c(OC)cccc12	5.94 and 6	40 nM	–	–	ILS at 45 mg/kg [1]: 23%; ILS at 30 mg/kg [2]: 139%
COc1cc(NS(C)(=O)=O)ccc1Nc1c2cccc(OC)c2nc2c(OC)cccc12	6.32 and 6.4	65 nM	48%	–	ILS at 45 mg/kg [5]: 99%
COc1cc(NS(C)(=O)=O)ccc1Nc1c2cccc(C)c2nc2c(C)cccc12	6.14 and 6.46	110 nM	86%	–	ILS at 45 mg/kg [1]: 135%
CNC(=O)c1cccc2c(Nc3ccc(NS(C)(=O)=O)cc3OC)c3ccccc3nc12	–	270 nM	–	–	ILS at 300 mg/kg [7]: 127%; ILS at 100 mg/kg [8]: 128%
COc1cc(NS(C)(=O)=O)ccc1Nc1c2cccc(C)c2nc2c(C(N)=O)cccc12	6.62 and 6.92	47 nM	25%	6.43	ILS at 20 mg/kg [9]: 113%
COc1cc(NS(C)(=O)=O)ccc1Nc1c2ccccc2nc2c(C)cccc12	6.03 and 5.96	30 nM	–	–	ILS at 20 mg/kg [9]: 143%; ILS at 65 mg/kg [11]: 47%
CNC(=O)c1cccc2c(Nc3ccc(NS(C)(=O)=O)cc3OC)c3cccc(C)c3nc12 [ASULACRINE]	–	–	–	6.4	ILS at 20 mg/kg [9]: 200%; ILS at 50 mg/kg [12]: 164%
COc1cc(NS(C)(=O)=O)ccc1Nc1c2ccccc2nc2c(C(N)=O)cccc12	–	270 nM	11%	–	ILS at 30 mg/kg [13]: 113%
COc1cc(NS(C)(=O)=O)ccc1Nc1c2cccc(C)c2nc2c(OC)cccc12	6.21 and 6.19	30 nM	69%	6.9	ILS at 30 mg/kg [2]: 109%
CNC(=O)c1cccc2c(Nc3ccc(NS(C)(=O)=O)cc3OC)c3cccc(OC)c3nc12	6.24 and 6.65	17 nM	34%	6.55	ILS at 20 mg/kg [14]: 139%
COc1cc(NS(C)(=O)=O)ccc1Nc1c2ccccc2nc2ccccc12 [AMSACRINE]	5.57 and 5.65	–	–	–	ILS at 65 mg/kg [15]: 63%; ILS at 13.3 mg/kg [16]: 78%
